Patent publication US20250145619A1, “KHK INHIBITOR, PREPARATION METHOD THEREFOR AND USE THEREOF” (YOUNGENE THERAPEUTICS CO., LTD, priority 2022, published 2025)

Target: KHK—C (Homo sapiens (Human), UniProt P50053)
Experiment: KHK—C ADP-Glo kinase inhibitory activity assay
Type: biochemical
Details: 1 nM KHK—C, 200 μM D-Fructose, 100 μM ATP, ADP-Glo luminescence
From the text: (KHK—C ADP-Glo Kinase Inhibitory Activity Assay)
Y=Bottom+(Top−Bottom)/(1+10^((LogIC50−X)×HillSlope)) • X: Log value of compound concentration • Y: Inhibition ratio (%)
[formula] • Negative control: DMSO

Chain of KHK—C (P50053 whole entry): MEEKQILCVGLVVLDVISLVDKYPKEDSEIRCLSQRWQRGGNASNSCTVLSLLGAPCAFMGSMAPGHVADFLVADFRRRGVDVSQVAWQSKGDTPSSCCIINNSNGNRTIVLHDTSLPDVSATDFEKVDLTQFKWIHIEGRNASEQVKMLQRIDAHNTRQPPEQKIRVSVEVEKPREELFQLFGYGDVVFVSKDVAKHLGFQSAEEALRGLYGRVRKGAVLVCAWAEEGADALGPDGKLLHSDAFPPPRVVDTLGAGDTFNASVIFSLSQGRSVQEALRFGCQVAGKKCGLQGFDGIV

IC50 [nM] | SMILES
100 | C[C@@H](C(=O)O)[C@H]1[C@@H]2CN(c3cc(C(F)(F)F)c(C#N)c(N4CC[C@@H]4C)n3)C[C@@H]21 [Example 18, (R)-2-((1R,5S,6R)-3-(5-cyano-6-((S)-2-methylazetidine-1-yl)-4-(trifluoromethyl)pyridin-2-yl)-3-azabicyclo[3.1.0]hexan-6-yl)propionic acid]
24.7 | C[C@H](C(=O)O)[C@H]1[C@@H]2CN(c3cc(C(F)(F)F)c(C#N)c(N4CC[C@@H]4C)n3)C[C@@H]21 [Example 19, (S)-2-((1R,5S,6R)-3-(5-cyano-6-((S)-2-methylazetidine-1-yl)-4-(trifluoromethyl)pyridin-2-yl)-3-azabicyclo[3.1.0]hexan-6-yl)propionic acid]
15.4 | C[C@H]1CCN1c1nc(N2CC[C@H](CCC(=O)O)C2)cc(C(F)(F)F)c1C#N [Example 20, 3-((S)-1-(5-cyano-6-((S)-2-methylazetidine-1-yl)-4-(trifluoromethyl)pyridin-2-yl)pyrrolidin-3-yl)propionic acid]
81.2 | C[C@H]1CCN1c1nc(N2CC[C@@H](CCC(=O)O)C2)cc(C(F)(F)F)c1C#N [Example 21, 3-((R)-1-(5-cyano-6-((S)-2-methylazetidine-1-yl)-4-(trifluoromethyl)pyridin-2-yl)pyrrolidin-3-yl)propionic acid]
47 | C[C@H]1CCN1c1nc(N2CC(CC(=O)O)C2)c2c(n1)C(F)(F)CC2 [Example 25, (S)-2-(1-(7,7-difluoro-2-(2-methylazetidine-1-yl)-6,7-dihydro-5H-cyclopentadiene[d]pyrimidin-4-yl)azetidine-3-yl)acetic acid]
42.9 | C[C@H]1CCN1c1nc(N2CCC3(CC(C(=O)O)C3)C2)c2c(n1)C(F)(F)CC2 (stereo partly drawn) [Example 26, (S)-6-(7,7-difluoro-2-(2-methylazetidine-1-yl)-6,7-dihydro-5H-cyclopentadiene[d]pyrimidin-4-yl)-6-azaspiro[3.4]octan-2-carboxylic acid]
59 | C[C@H]1CCN1c1nc(N2CC3(CCC(C(=O)O)C3)C2)c2c(n1)C(F)(F)CC2 (stereo partly drawn) [Example 27, 2-(7,7-difluoro-2-((S)-2-methylazetidine-1-yl)-6,7-dihydro-5H-cyclopentadiene[d]pyrimidin-4-yl)-2-azaspiro[3.4]octan-6-carboxylic acid]
> 10000 | CC(=O)N[C@@H]1CN(c2nc(N3CC4(CC(C(=O)O)C4)C3)c3c(n2)C(F)(F)CC3)[C@H]1C [Example 28, 2-(2-((2S,3R)-3-acetamido-2-methylazetidine-1-yl)-7,7-difluoro-6,7-dihydro-5H-cyclopentadiene[d]pyrimidin-4-yl)-2-azaspiro[3.3]heptan-6-carboxylic acid]
> 10000 | CN[C@@H]1CN(c2nc(N3CC4(CC(C(=O)O)C4)C3)c3c(n2)C(F)(F)CC3)[C@H]1C [Example 29, 2-(7,7-difluoro-2-((2S,3R)-2-methyl-3-(methylamino)azetidine-1-yl)-6,7-dihydro-5H-cyclopentadiene[d]pyrimidin-4-yl)-2-azaspiro[3.3]heptan-6-carboxylic acid]
> 10000 | CO[C@@H]1CN(c2nc(N3CC4(CC(C(=O)O)C4)C3)c3c(n2)C(F)(F)CC3)[C@H]1C [Example 30, 2-(7,7-difluoro-2-((2S,3R)-3-methoxy-2-methylazetidine-1-yl)-6,7-dihydro-5H-cyclopentadiene[d]pyrimidin-4-yl)-2-azaspiro[3.3]heptan-6-carboxylic acid]
134 | C[C@H]1[C@H](O)CN1c1nc(N2CC3(CC(C(=O)O)C3)C2)c2c(n1)C(F)(F)CC2 [Example 31, 2-(7,7-difluoro-2-((2S,3R)-3-hydroxy-2-methylazetidine-1-yl)-6,7-dihydro-5H-cyclopentadiene[d]pyrimidin-4-yl)-2-azaspiro[3.3]heptan-6-carboxylic acid]
10.4 | C[C@H]1CCN1c1nc(N2CCC(CC(=O)O)C2)c2c(n1)C(F)(F)CC2 (stereo partly drawn) [Example 32, 2-(1-(7,7-difluoro-2-((S)-2-methylazetidine-1-yl)-6,7-dihydro-5H-cyclopentadiene[d]pyrimidin-4-yl)pyrrolidin-3-yl)acetic acid]
52.8 | C[C@H]1CCN1c1nc(N2CCC(CC(=O)O)CC2)c2c(n1)C(F)(F)CC2 [Example 33, (S)-2-(1-(7,7-difluoro-2-(2-methylazetidine-1-yl)-6,7-dihydro-5H-cyclopentadiene[d]pyrimidin-4-yl)piperidin-4-yl)acetic acid]
40 | C[C@H]1CCN1c1nc(N2CC3(CC(CC(=O)O)C3)C2)c2c(n1)C(F)(F)CC2 [Example 34, (S)-2-(2-(7,7-difluoro-2-(2-methylazetidine-1-yl)-6,7-dihydro-5H-cyclopentadiene[d]pyrimidin-4-yl)-2-azaspiro[3.3]heptan-6-yl)acetic acid]
142 | C[C@H]1CCN1c1nc(N2CC3CN(CC(=O)O)CC3C2)c2c(n1)C(F)(F)CC2 (stereo partly drawn) [Example 35, 2-(5-(7,7-difluoro-2-((S)-2-methylazetidine-1-yl)-6,7-dihydro-5H-cyclopentadiene[c]pyrimidin-4-yl)hexahydropyrrolo[3,4-c]pyrrolo-2(1H)-yl)acetic acid]
13.6 | C[C@H]1CCN1c1nc(N2CC[C@H](CC(=O)O)C2)c2c(n1)C(F)(F)CC2 [Example 36, 2-((R)-1-(7,7-difluoro-2-((S)-2-methylazetidine-1-yl)-6,7-dihydro-5H-cyclopentadiene[d]pyrimidin-4-yl)pyrrolidin-3-yl)acetic acid]
3940 | C[C@H]1CCN1c1nc(N2CC[C@H](CC(=O)O)C2)cc2nccnc12 [Example 41, 2-((R)-1-(5-((S)-2-methylazetidine-1-yl)pyridino[3,4-b]pyrazin-7-yl)pyrrolidin-3-yl)acetic acid]

SMILES | IC50 [nM]
C[C@H]1CCN1c1nc(N2CC3(CC(C(=O)O)C3)C2)c2c(n1)C(F)(F)CC2 [Example 24, (S)-2-(7,7-difluoro-2-(2-methylazetidine-1-yl)-6,7-dihydro-5H-cyclopentadiene[d]pyrimidin-4-yl)-2-azaspiro[3.3]heptan-6-carboxylic acid] | 78.3
C[C@H]1CCN1c1nc(N2C[C@@H]3[C@@H](CC(=O)O)[C@@H]3C2)cc2nc(C#N)cnc12 [Example 46, 2-((1R,5S,6R)-3-(2-cyano-5-((S)-2-methylazetidine-1-yl)pyridino[3,4-b]pyrazin-7-yl)-3-azabicyclo[3.1.0]hexan-6-yl)acetic acid] | 30.2
